Series [1] is described as follows: Blood ammonia level-lowering effect in rats on high-protein diet. The series is classed as in vivo, rat (male SD). The following applies: for Blood ammonia level: 7 days, mean ± S.D., 5 animals. As to the method:
The blood ammonia level-lowering effect of N-(1,3-dihydroxy-2-propyl)valiolamine in rats
Male SD rats aged […] were fed either on a regular diet or a high-protein powder diet containing 61% of casein for 7 days. N-(1,3-dihydroxy-2-propyl)valiolamine (hereinafter referred to shortly as AO-128) was added to the high-protein diet at final concentrations of 10 and 50 ppm. The animals had free access to the diets and the mean daily food intake was approximately 18 g/day. On the 7th day, laparotomy was performed under ether anesthesia and the blood was collected from the abdominal aorta. The blood ammonia level was estimated using an assay kit, a product of WAKO.

Series [2] in a line: Acute oral toxicity in mice. The conditions noted are these: mouse, in vivo, mice (NRMI).
Series [3] is described as follows: Acute oral toxicity in rats. The following applies: rat, in vivo, rats (Wistar).
For series [4] the following is noted: diabetics accompanied with hepatocirrhosis; cited from earlier work.
The subject of series [5] is α-glucosidase. The conditions noted are these: cited from earlier work.

Take `OCC(CO)N[C@H]1C[C@](O)(CO)[C@@H](O)[C@H](O)[C@H]1O` [AO-128, N-(1,3-dihydroxy-2-propyl)valiolamine]: the Blood ammonia level stood at 88 ± 7 µg/dL in series [1] (10 ppm AO-128 in high-protein diet (61% casein)) and 90 ± 8 µg/dL in series [1] (50 ppm AO-128 in high-protein diet (61% casein)). The “blood ammonia level versus high-protein diet control group” value in series [1] (AO-128 treated high-protein diet group, 10 and 50 ppm) is recorded as “overtly lower blood ammonia level than the high-protein diet control group”. Moreover, the LD50 in series [2] was 14700 to 21500 mg/kg; in series [3], roughly 20000 mg/kg.
With `C[C@H]1O[C@H](O[C@H]2[C@H](O)[C@@H](O)[C@@H](O[C@H]3[C@H](O)[C@@H](O)C(O)O[C@@H]3CO)O[C@@H]2CO)[C@H](O)[C@@H](O)[C@@H]1N[C@H]1C=C(CO)[C@@H](O)[C@H](O)[C@H]1O` (stereo partly shown) [acarbose], the “effect on blood ammonia level” value in series [4] is recorded as “lowers the blood ammonia level”. Also, the “α-glucosidase inhibitory activity” value in series [5] is recorded as “α-glucosidase inhibitor”.

Broadly, the LD50 is the dose at which mortality reaches 50%.

The values are drawn from patent US4996236A, “Therapeutic composition for hepatic encephalopathy” (Takeda Chemical Industries, Ltd., priority 1988, dated 1991).
